Reference: patent US12569576B2, “Compositions and methods for measuring oxidative stress” (Washington University, priority 2020, dated 2026)
Several values for one entry are separate records, joined by “and”; a condition that tells them apart may be missing. Equal values may be shown once.

Legend:
A549 cells [1] = assay: Galuminox uptake in LPS-treated or serum/glucose deprived A549 cells with ROS-attenuating drugs; assay type: cell-based, human; settings: LPS-treated or nutrient deprived A549 cells; Galuminox 20 μM 60 min
Method: For evaluation of therapeutic effects of drugs, such as Carvedilol (CAR), Dexrazoxane (DEX), and mitoTempo (MT) on either serum/glucose deprived media- or LPS-induced superoxide production, A549 cells were incubated with either LPS (1 μg/mL) or serum/glucose deprived (starvation) media for 24 h, and thereafter incubated with Carvedilol, Dexrazoxane, and mitoTempo 24 h at 37° C. Next day, media was removed from wells, cells were carefully rinsed with PBS (2×200 μL), fresh media (200 μL) was added, and cells were incubated with Galuminox (20 μM) at 37° C. for 60 min. For controls, untreated cells were incubated with Galuminox (20 μM) under identical conditions. Thereafter, fluorescence images were acquired, and cellular uptake was quantified as described above.

left transplanted lung = assay: MicroPET/CT imaging in mouse lung transplant model of CLAD; assay type: in vivo, mice; settings: 4 days post left lung transplant; PET/CT 30 min post injection, 20 min static scan
Method: The next experiment was an evaluation of Galuminox in a mouse lung transplant model of CLAD. Allogeneic (FVB) left lung recipients (B16 mice) were treated with immunosuppression agents CD40L and CTLA4Ig to induce tolerance. Despite treatment with immunosuppressant drugs, allogeneic transplants show OB lesions as a function of time, normally defined as early stages of disease progression (early CLAD) and late stages of disease progression (fulminant CLAD).
4 days post left lung transplant from FVB mice (donor) into B16 mice (acceptor), both transplanted mice and un-transplanted control counterparts were imaged using PET/CT 30 minutes post tail-vein administration of ^68Ga-Galuminox using static acquisition scan of 20 min (FIG. 12A). PET images were co-registered with CT for anatomical correlation. Standard Uptake Values (SUVs) were determined by drawing ROI, and counts were normalized to injected dose and weights of animals (FIG. 12B).

[2] = test system: ROS activity in acutely injured lungs; assay: Preclinical PET/CT imaging, mouse model of LPS-mediated acute lung injury; assay type: in vivo; settings: for Standard Uptake Value (SUV) in lungs: n=4, frames 45-60 min
Method: All animal procedures were approved by the Washington University Animal Studies Committee. Imaging and biodistribution studies were performed in C57Bl6 mice (average weight, 24 g). Male mice (n=4) were treated either with LPS at a dose of 5 μg/g or vehicle (saline) 24 h prior to imaging/biodistribution studies. For these studies, mice were anesthetized with isoflurane (2.0%) via an induction chamber and maintained with a nose cone. After anesthetization, the mice were secured in a supine position and placed in an acrylic imaging tray. Following intravenous tail-vein administration of ^68Ga-Galuminox (100 μL; 100 μCi; 2% ethanol in saline, 3.7 MBq), dynamic preclinical PET scans were performed over 60 min, using Inveon PET/CT scanner (Siemens Medical Solutions). PET data were stored in list mode, and reconstruction was performed using a 3D-OSEM method with detector efficiency, decay, dead time, attenuation, and scatter corrections applied. For anatomical visualization, PET images were also co-registered with CT images from an Inveon PET/CT scanner. ROIs were drawn over the lung, and standard uptake values (SUV) were calculated as the mean radioactivity per injected dose per animal weight.

[3] = Biodistribution studies (post preclinical imaging); assay type: in vivo, C57Bl6 mice; settings: for Biodistribution, Bladder / Biodistribution, Blood / Biodistribution, Bone / Biodistribution, Brain / Biodistribution, Colon / Biodistribution, Fat / Biodistribution, Heart / Biodistribution, Intestine / Biodistribution, Kidney / Biodistribution, Liver / Biodistribution, Lung / Biodistribution, Muscle: 60 min, mean, n=4
Text: All animal procedures were approved by the Washington University Animal Studies Committee. Following microPET/CT imaging, mice (n=4) were euthanized by cervical dislocation. Blood samples were obtained by cardiac puncture, organs then harvested rapidly, and all tissue samples analyzed for γ-activity using Beckman Gamma 8000 counter. All samples were decay-corrected to the time the γ-counter was started. Standard samples were counted with the organs for each animal and represent […] of the injected dose. An additional dose was diluted into milliQ water (100 mL) and aliquots (1 mL) were counted with each mouse. Data were quantified as the percentage injected dose (% ID) per gram of tissue (tissue kBq (injected kBq)^−1 (g tissue)^−1×100) in Table 2, shown below.

A549 cells [4] = assay: Live cell fluorescence imaging, cellular accumulation in LPS-treated A549 cells; assay type: cell-based, human; settings: LPS 1 μg/mL 24 h
Method: Human alveolar basal epithelial (A549) adenocarcinoma cells were grown in Dulbecco's Modified Eagle Medium (DMEM) supplemented with 1-glutamine (2 mM), penicillin/streptomycin (200 IU.) and heat-inactivated fetal calf serum (10%). The cells were grown at 37° C. under a 5% CO2 atmosphere.
Live cell fluorescence imaging studies were performed at Washington University Center for Cellular Imaging (WUCCI). For imaging studies, A549 cells or their mt-Keima transfected counterparts were plated onto borosilicate 8-well chambered coverglass (Labtek) and allowed to grow to approximately 70% confluence at 37° C. under 5% CO2 atmosphere in the culture media (200 μL) and treated with LPS (1 μg/mL) for 24 h. Following LPS treatments, all wells were rinsed with fresh media. […] Images were processed and analyzed using the ImageJ software package (NIH). […] For analysis, ROIs were drawn on cells of both channels, scatter plots were obtained, and Pearson's Correlation Coefficients (PCC) were determined as described previously (K. W. Dunn, M. M. Kamocka, J. H. McDonald. A practical guide to evaluating colocalization in biological microscopy. Am. J. Physiol. Cell Physiol., 300 (2011), pp. C723-C742.).

[5] = LPS vs saline, 1 h post injection

## COc1ccccc1OCCNCC(O)COc1cccc2[nH]c3ccccc3c12 (stereo not drawn) [CAR, Carvedilol]
A549 cells [1]
  Galuminox probe uptake in the presence of the drug compared to control A549 cells: significantly decreased

## O=C(CNC(=S)Nc1ccc(CC2CN3CCN4CCN2CC(=O)[O][68Ga]([O]C(=O)C4)[O]C(=O)C3)cc1)Nc1cccc2c(=O)[nH][nH]c(=O)c12 (stereo not drawn) [^68Ga-Galuminox]
Left transplanted lung
  higher uptake in the left transplanted lung compared with untransplanted mice (SUV): 1.5 fold
[2]; 0-60 min dynamic PET
  SUV time-activity curves, retention in lungs of LPS-treated mice: consistently higher and stable retention
[2]; LPS-treated mice (5 μg/g, 24 h)
  Standard Uptake Value (SUV) in lungs: 12.9±1.85
[2]; mouse, in vivo
  mode of excretion (PET pharmacokinetics): dominant renal mode of probe excretion
[2]; saline (vehicle) only treated mice
  Standard Uptake Value (SUV) in lungs: 2.62±0.48
[3]; 1 h post injection
  excretion profiles (biodistribution): both hepatobiliary- and renal-modes of excretion
[3]; Control (saline)
  Biodistribution, Bladder: 162.956 % ID/g
  Biodistribution, Blood: 2.82±0.88 % ID/g and 2.822 % ID/g
  Biodistribution, Bone: 1.0±0.34 % ID/g and 1.002 % ID/g
  Biodistribution, Brain: 0.5693 % ID/g
  Biodistribution, Colon: 0.8617 % ID/g
  Biodistribution, Fat: 0.6117 % ID/g
  Biodistribution, Heart: 2.381 % ID/g
  Biodistribution, Intestine: 4.286 % ID/g
  Biodistribution, Kidney: 13.0965 % ID/g
  Biodistribution, Liver: 6.14±0.66 % ID/g and 6.138 % ID/g
  Biodistribution, Lung: 39.7±19.3 % ID/g and 39.7 % ID/g
  Biodistribution, Muscle: 1.084 % ID/g
[3]; LPS treated
  Biodistribution, Bladder: 5.893 % ID/g
  Biodistribution, Blood: 3.96±1.83 % ID/g and 3.96 % ID/g
  Biodistribution, Bone: 2.14±0.57 % ID/g and 2.138 % ID/g
  Biodistribution, Brain: 0.2628 % ID/g
  Biodistribution, Colon: 0.2924 % ID/g
  Biodistribution, Fat: 0.3021 % ID/g
  Biodistribution, Heart: 1.073 % ID/g
  Biodistribution, Intestine: 1.314 % ID/g
  Biodistribution, Kidney: 3.048 % ID/g
  Biodistribution, Liver: 10.5±1.68 % ID/g and 10.46 % ID/g
  Biodistribution, Lung: 147.9±25.8 % ID/g and 147.8875 % ID/g
  Biodistribution, Muscle: 0.294 % ID/g
[3]; [5]
  bone retention, LPS vs saline: 2.1 fold
  higher retention in lungs of LPS treated mice vs saline-only (biodistribution): 4 fold
  higher retention in the blood of LPS treated mice vs saline: 1.4 fold
  liver retention, LPS vs saline: 1.7 fold
[3]; lung 4 fold / blood 1.4 fold
  higher specific retention in lungs of LPS treated mice (lung normalized to blood): 3 fold and 2.85 fold

## CC1(C)CC(NC(=O)C[P+](c2ccccc2)(c2ccccc2)c2ccccc2)CC(C)(C)N1[O] [Mito-Tempo]
A549 cells [1]
  Galuminox probe uptake in the presence of the drug compared to control A549 cells: significantly decreased

## Nc1ccc2c(c1)C(c1ccccc1)N(CCCCCC[P+](c1ccccc1)(c1ccccc1)c1ccccc1)c1cc(N)ccc1-2.[I-] (stereo not drawn) [MitoSOX]
A549 cells [4]
  probe fluorescence, LPS stimulated vs untreated A549 control cells: higher fluorescence

## C[C@@H](CN1CC(=O)NC(=O)C1)N1CC(=O)NC(=O)C1 [DEX, Dexrazoxane]
A549 cells [1]
  Galuminox probe uptake in the presence of the drug compared to control A549 cells: significantly decreased
